What follows are molecules tested against T1, Dihydrolipoyl dehydrogenase (Mycobacterium tuberculosis (strain CDC 1551 / Oshkosh), UniProt P9WHH8) (assay: Enzyme Assays).
T1 sequence (P9WHH8 whole entry): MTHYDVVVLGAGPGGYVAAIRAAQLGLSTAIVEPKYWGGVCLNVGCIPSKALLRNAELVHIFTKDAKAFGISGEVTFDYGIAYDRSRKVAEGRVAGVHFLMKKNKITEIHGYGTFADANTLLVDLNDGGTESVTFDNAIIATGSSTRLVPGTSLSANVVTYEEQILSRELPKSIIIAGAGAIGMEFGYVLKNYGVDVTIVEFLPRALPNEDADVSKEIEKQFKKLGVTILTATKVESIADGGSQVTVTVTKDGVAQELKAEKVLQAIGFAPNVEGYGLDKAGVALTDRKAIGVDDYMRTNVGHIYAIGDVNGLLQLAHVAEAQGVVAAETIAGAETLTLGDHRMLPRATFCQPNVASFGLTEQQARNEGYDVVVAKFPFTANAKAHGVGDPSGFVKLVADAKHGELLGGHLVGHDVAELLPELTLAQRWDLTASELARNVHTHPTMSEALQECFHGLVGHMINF
`NC(=O)C(=O)NCc1cccnc1` [4031-0653] showed an IC50 of 6 µM. `CC(C)(C)NC(=O)C(=O)NCc1cccnc1` [4031-1995] was tested, and the IC50 was 100 µM. In the case of `O=C(Nc1ccc(Br)cc1)C1CCC(S(=O)(=O)c2cccnc2)CC1` (stereo not drawn) [C324-0095], the IC50 is reported as > 100 µM. `CCN(Cc1ccccc1)C(=O)CN(C)S(=O)(=O)c1cc(Br)cnc1N` [E114-0951] was tested, and the IC50 was 12.5 µM. In the case of `CN1CCN(S(=O)(=O)c2cc(Br)cnc2N)CC1` [E138-2099], the IC50 is reported as > 100 µM. `CCCCNS(=O)(=O)c1cc(Br)cnc1N` [E138-2195] was tested, and the IC50 was > 100 µM. In the case of `CN(Cc1ccccc1)C(=O)CN(C)S(=O)(=O)c1cc(Br)cnc1N` [E144-0828], the IC50 is reported as 34 µM. For `CCCCN(C)C(=O)CCNS(=O)(=O)c1cc(Br)cnc1N` [E199-0112], the IC50 was > 100 µM. In the case of `Nc1ncc(Br)cc1S(=O)(=O)NCCC(=O)Nc1cccc(Cl)c1` [K906-3123], the IC50 is reported as > 100 µM. With `Cc1cc(NC(=O)CN(C)S(=O)(=O)c2cc(Br)cnc2N)ccc1Br` [K906-3584] the IC50 was < 0.1 µM. With `CC1CCCCC1NC(=O)CN(C)S(=O)(=O)c1cccc2cccnc12` (stereo not drawn) [N-(2-methylcyclohexyl)-2-[methyl(quinolin-8-ylsulfonyl)amino]acetamide] the IC50 was > 100 µM. `CN(CC(=O)Nc1ccc(F)c(Cl)c1)S(=O)(=O)c1cc(Br)cnc1N` [SL418] showed a Ki of 0.143 µM.

The molecules below were run against T2, Dihydrolipoyl dehydrogenase (Mycobacterium tuberculosis (strain ATCC 25618 / H37Rv), UniProt P9WHH9) (assay: Enzyme Assays).
T2 sequence (P9WHH9 whole entry): T1 sequence (P9WHH8 whole entry)
Molecule `CN(CC(=O)Nc1ccc(F)c(Cl)c1)S(=O)(=O)c1cc(Br)cnc1N` [SL418] has a Ki of 0.333 µM.
